Assay [1] relates to HIV-1 mediated cell-cell fusion (R8 virus). To be noted: for EC50 / IC50: mediated cell-cell fusion (R8 virus).
The test system of the next assay is HIV-1. Format: cell-based.
For a further assay, the system named is M-tropic (BAL) HIV-1. To be noted: for IC50: M-tropic (BAL).
Another assay concerns T-tropic (R8) HIV-1. Conditions: for IC50: T-tropic (R8).
In the next assay the test system is R9 HIV-1 virus. In kind it is cell-based.
The next assay deals with HIV. Conditions: human, in vivo; cited from earlier work.
The target of assay [2] is gp41 of M-tropic HIV-1 BAL virus (HIV-1 (BAL)). Briefly: cell-based or functional assay.
Assay [3] deals with gp41 of HIV-1 NL4-3 (HIV-1 (NL4-3)). Briefly: cell-based or functional assay.
Assay [4] concerns the target gp41 of T-tropic HIV-1 R8 virus (HIV-1 (R8)). Briefly: cell-based or functional assay.
Assay [5] concerns the target gp41 of T20-resistant HIV-1 virus (HIV-1 (T20-resistant virus)). Briefly: cell-based or functional assay.

The text below walks through data of patent US20050113292A1 (priority 2003, published 2005).

Several values for one entry are separate records, joined by “and”; a condition that tells them apart may be missing. Identical values can stand only once. Like-named read-outs stand apart in the source and are kept apart here.

As for `CC[C@H](C)[C@H](NC(=O)[C@H](CC(C)C)NC(=O)[C@H](CO)NC(=O)[C@H](Cc1c[nH]cn1)NC(=O)[C@@H](NC(=O)[C@H](CC(C)C)NC(=O)[C@H](CO)NC(=O)[C@@H](NC(=O)[C@H](Cc1ccc(O)cc1)NC(=O)[C@H](CC(N)=O)NC(=O)[C@H](CC(N)=O)NC(=O)[C@@H](NC(=O)[C@H](CCC(=O)O)NC(=O)[C@H](CCCNC(=N)N)NC(=O)[C@H](CC(=O)O)NC(=O)[C@H](Cc1c[nH]c2ccccc12)NC(=O)[C@H](CCC(=O)O)NC(=O)[C@H](CCSC)NC(=O)[C@@H]1Cc2c([nH]c3ccccc23)C(C(=O)NCCCC[C@H](NC(=O)CCNC(=O)C2N[C@H](C(=O)N[C@@H](CCSC)C(=O)N[C@@H](CCC(=O)O)C(=O)N[C@@H](Cc3c[nH]c4ccccc34)C(=O)N[C@@H](CC(=O)O)C(=O)N[C@@H](CCCNC(=N)N)C(=O)N[C@@H](CCC(=O)O)C(=O)N[C@H](C(=O)N[C@@H](CC(N)=O)C(=O)N[C@@H](CC(N)=O)C(=O)N[C@@H](Cc3ccc(O)cc3)C(=O)N[C@H](C(=O)N[C@@H](CO)C(=O)N[C@@H](CC(C)C)C(=O)N[C@H](C(=O)N[C@@H](Cc3c[nH]cn3)C(=O)N[C@@H](CO)C(=O)N[C@@H](CC(C)C)C(=O)N[C@H](C(=O)N[C@@H](CCC(=O)O)C(=O)N[C@@H](CCC(=O)O)C(=O)N[C@@H](CO)C(=O)N[C@@H](CCC(N)=O)C(=O)N[C@@H](CC(N)=O)C(=O)N[C@@H](CCC(N)=O)C(=O)N[C@@H](CCC(N)=O)C(=O)N[C@@H](CCC(=O)O)C(=O)N[C@@H](CCCCN)C(=O)N[C@@H](CC(N)=O)C(=O)N[C@@H](CCC(=O)O)C(=O)N[C@@H](CCC(N)=O)C(=O)N[C@@H](CCC(=O)O)C(=O)N[C@@H](CC(C)C)C(=O)N[C@@H](CC(C)C)C(=O)O)[C@@H](C)CC)[C@@H](C)CC)[C@@H](C)O)[C@@H](C)CC)Cc3c2[nH]c2ccccc32)C(=O)N[C@@H](CCCCNC(=O)CNC(=O)C2N[C@H](C(=O)N[C@@H](CCSC)C(=O)N[C@@H](CCC(=O)O)C(=O)N[C@@H](Cc3c[nH]c4ccccc34)C(=O)N[C@@H](CC(=O)O)C(=O)N[C@@H](CCCNC(=N)N)C(=O)N[C@@H](CCC(=O)O)C(=O)N[C@H](C(=O)N[C@@H](CC(N)=O)C(=O)N[C@@H](CC(N)=O)C(=O)N[C@@H](Cc3ccc(O)cc3)C(=O)N[C@H](C(=O)N[C@@H](CO)C(=O)N[C@@H](CC(C)C)C(=O)N[C@H](C(=O)N[C@@H](Cc3c[nH]cn3)C(=O)N[C@@H](CO)C(=O)N[C@@H](CC(C)C)C(=O)N[C@H](C(=O)N[C@@H](CCC(=O)O)C(=O)N[C@@H](CCC(=O)O)C(=O)N[C@@H](CO)C(=O)N[C@@H](CCC(N)=O)C(=O)N[C@@H](CC(N)=O)C(=O)N[C@@H](CCC(N)=O)C(=O)N[C@@H](CCC(N)=O)C(=O)N[C@@H](CCC(=O)O)C(=O)N[C@@H](CCCCN)C(=O)N[C@@H](CC(N)=O)C(=O)N[C@@H](CCC(=O)O)C(=O)N[C@@H](CCC(N)=O)C(=O)N[C@@H](CCC(=O)O)C(=O)N[C@@H](CC(C)C)C(=O)N[C@@H](CC(C)C)C(=O)O)[C@@H](C)CC)[C@@H](C)CC)[C@@H](C)O)[C@@H](C)CC)Cc3c2[nH]c2ccccc32)C(=O)N[C@@H](CO)C(=O)N[C@@H](CO)C(=O)N[C@@H](C)C(N)=O)N1)[C@@H](C)CC)[C@@H](C)O)[C@@H](C)CC)C(=O)N[C@@H](CCC(=O)O)C(=O)N[C@@H](CCC(=O)O)C(=O)N[C@@H](CO)C(=O)N[C@@H](CCC(N)=O)C(=O)N[C@@H](CC(N)=O)C(=O)N[C@@H](CCC(N)=O)C(=O)N[C@@H](CCC(N)=O)C(=O)N[C@@H](CCC(=O)O)C(=O)N[C@@H](CCCCN)C(=O)N[C@@H](CC(N)=O)C(=O)N[C@@H](CCC(=O)O)C(=O)N[C@@H](CCC(N)=O)C(=O)N[C@@H](CCC(=O)O)C(=O)N[C@@H](CC(C)C)C(=O)N[C@@H](CC(C)C)C(=O)O` (stereo partly drawn) [Compound 3α-C34], in assay [1], the “fold increase over monomer, cell-cell fusion” value came to 34 fold; the midpoint of the response, the EC50, lay at 1 nM; the IC50 turned out to be 1 nM. Besides, in the assay on HIV-1, the “Neutralization (%)” value is on record as less than 5%. In addition, in the assay with M-tropic (BAL) HIV-1, the “fold increase of potency over monomer, BAL virus” value is recorded as 88 fold and 0.06 nM corresponded to half-maximal inhibition (IC50). In the assay on T-tropic (R8) HIV-1, the “fold increase of potency over monomer, R8 virus” value was found to be 42 fold and the IC50 came out at 1 nM.
In the case of enfuvirtide, the midpoint of the response in [1], the EC50, lay at 22.1 nM. In addition, the IC50 in assay [1] was determined as 22.1 nM; in the assay with NL4-3 (MT-4), 4.31 nM; with M-tropic (BAL) HIV-1 it was 3.9 nM; with T-tropic (R8) HIV-1 it was 76.4 nM; in the assay on T-20 Resistant Virus, 32.3 nM. Further, the “percentage of inhibition of cell infection” value in the assay on R9 HIV-1 virus (0.5 µM) is roughly 100%. In addition, the “reduction of plasma HIV RNA levels” value in the assay on HIV is on record as no more than 2 logs. In the assay on T-20 Resistant Virus, the Ratio is 7.50.
Take “DP178 (from UniProt P04578 638-673) (peptide)”: the IC50, single-cycle MAGI infectivity, BAL virus in [2] amounted to 3.9 nM. This molecule gave an IC50, single-cycle MAGI infection of P4R5 cells, NL4-3 (MT-4) in assay [3] of 4.31 nM. In addition, in assay [4], the IC50, HIV-1 mediated cell-cell fusion (syncytium formation), R8 virus came out at 22.1 nM and the IC50, single-cycle MAGI infectivity, R8 virus came to 76.4 nM. The molecule further registered an IC50, single-cycle MAGI infection of P4R5 cells, T-20 Resistant Virus in [5] of 32.3 nM.
As for `CC[C@H](C)[C@H](NC(=O)[C@H](CC(C)C)NC(=O)[C@H](CO)NC(=O)[C@H](Cc1c[nH]cn1)NC(=O)[C@@H](NC(=O)[C@H](CC(C)C)NC(=O)[C@H](CO)NC(=O)[C@@H](NC(=O)[C@H](Cc1ccc(O)cc1)NC(=O)[C@@H]1CSC(C(=O)NCCCC[C@H](NC(=O)CCNC(=O)C2N[C@H](C(=O)N[C@@H](Cc3ccc(O)cc3)C(=O)N[C@H](C(=O)N[C@@H](CO)C(=O)N[C@@H](CC(C)C)C(=O)N[C@H](C(=O)N[C@@H](Cc3c[nH]cn3)C(=O)N[C@@H](CO)C(=O)N[C@@H](CC(C)C)C(=O)N[C@H](C(=O)N[C@@H](CCC(=O)O)C(=O)N[C@@H](CCC(=O)O)C(=O)N[C@@H](CO)C(=O)N[C@@H](CCC(N)=O)C(=O)N[C@@H](CC(N)=O)C(=O)N[C@@H](CCC(N)=O)C(=O)N[C@@H](CCC(N)=O)C(=O)N[C@@H](CCC(=O)O)C(=O)N[C@@H](CCCCN)C(=O)N[C@@H](CC(N)=O)C(=O)N[C@@H](CCC(=O)O)C(=O)N[C@@H](CCC(N)=O)C(=O)N[C@@H](CCC(=O)O)C(=O)N[C@@H](CC(C)C)C(=O)N[C@@H](CC(C)C)C(=O)N[C@@H](CCC(=O)O)C(=O)N[C@@H](CC(C)C)C(=O)N[C@@H](CC(=O)O)C(=O)N[C@@H](CCCCN)C(=O)N[C@@H](Cc3c[nH]c4ccccc34)C(=O)N[C@@H](C)C(=O)N[C@@H](CO)C(=O)N[C@@H](CC(C)C)C(=O)N[C@@H](Cc3c[nH]c4ccccc34)C(=O)N[C@@H](CC(N)=O)C(=O)N[C@@H](Cc3c[nH]c4ccccc34)C(=O)N[C@@H](Cc3ccccc3)C(=O)O)[C@@H](C)CC)[C@@H](C)CC)[C@@H](C)O)CS2)C(=O)N[C@@H](CO)C(=O)N[C@@H](CO)C(=O)N[C@@H](C)C(N)=O)N1)[C@@H](C)O)[C@@H](C)CC)C(=O)N[C@@H](CCC(=O)O)C(=O)N[C@@H](CCC(=O)O)C(=O)N[C@@H](CO)C(=O)N[C@@H](CCC(N)=O)C(=O)N[C@@H](CC(N)=O)C(=O)N[C@@H](CCC(N)=O)C(=O)N[C@@H](CCC(N)=O)C(=O)N[C@@H](CCC(=O)O)C(=O)N[C@@H](CCCCN)C(=O)N[C@@H](CC(N)=O)C(=O)N[C@@H](CCC(=O)O)C(=O)N[C@@H](CCC(N)=O)C(=O)N[C@@H](CCC(=O)O)C(=O)N[C@@H](CC(C)C)C(=O)N[C@@H](CC(C)C)C(=O)N[C@@H](CCC(=O)O)C(=O)N[C@@H](CC(C)C)C(=O)N[C@@H](CC(=O)O)C(=O)N[C@@H](CCCCN)C(=O)N[C@@H](Cc1c[nH]c2ccccc12)C(=O)N[C@@H](C)C(=O)N[C@@H](CO)C(=O)N[C@@H](CC(C)C)C(=O)N[C@@H](Cc1c[nH]c2ccccc12)C(=O)N[C@@H](CC(N)=O)C(=O)N[C@@H](Cc1c[nH]c2ccccc12)C(=O)N[C@@H](Cc1ccccc1)C(=O)O` (stereo partly drawn) [Compound 2α-DP178], in [1], the “fold increase over monomer, cell-cell fusion” value is reported as 122 fold; the EC50 turned out to be 0.18 nM; half-maximal inhibition (IC50) was put at 0.18 nM. Besides, the “percentage of inhibition of cell infection” value in the assay on R9 HIV-1 virus (0.01 µM) was roughly 100%. The “Neutralization (%)” value with HIV-1 was <5% and 6%. In addition, in the assay with M-tropic (BAL) HIV-1, the “fold increase of potency over monomer, BAL virus” value is listed as 14 fold and the IC50 was found to be 0.28 nM. In addition, in the assay with T-tropic (R8) HIV-1, the “fold increase of potency over monomer, R8 virus” value is reported as 182 fold and the IC50 was determined as 0.42 nM.

Broadly, the EC50 is the concentration giving half of the maximal effect. Read a low EC50 as greater potency. A word on the IC50: it is the concentration that gives 50% inhibition. Low values mean inhibition by little substance, high ones a need for much substance.
